Where two headings read alike, the source gives them in different places.
Key:
[1] = system: white unbred mice; test: Toxicity on white unbred mice by Litchfild-Wilkokson's procedure; format: in vivo; settings: white unbred mice 18 to 20 g, sharp experiment
[2] = system: antibody-forming cells (AFC) in the spleen; test: Humoral immunity, localized-in-gel hemolysis, AFC accumulation in spleen of immunized mice; format: in vivo, hybrid mice F1 (CBA/C57BL6)
Protocol: The influence on humoral immunity was studied using the method of localized-in-gel hemolysis. […] On the 5th day the number of antibody-forming cells (AFC) in the spleen of the mice was calculated and the immune response stimulation index was determined as the ratio of AFC number in the test group to the AFC number in the control group. The respective data are represented in Table 2.

[3] = system: human mononucleator cells (T-lymphocytes); test: Proliferation of T-lymphocytes in cell culture in vitro (3H-thymidine); format: cell-based
Protocol: The influence of the test compound on the proliferation of T-lymphocytes was studied on a model in vitro. To this end human mononucleator cells were preliminarily incubated during three hours in the presence of different concentrations of each test substance. Each test substance was studied over a wide range of its concentrations, that is from […]. As a negative control there was added a physiological 0.9 percent solution of NaCl. The results of the influence of novel compoubds on the intensity of proliferation of human lymphocytes in the cell culture in vitro are represented in Table 3.

[4] = system: macrophages; test: Phagocytic activity of macrophages (clearance from blood); format: in vivo, mice; settings: 500 μg per mouse per os
Excerpt: The influence of the preparations in question on the phagocytic activity of macrophages was studid from clearence of the carcass in blood taken from the retroorbital sinus of mice that received the preparations per os. The results were estimated on the phagocytic index α (see Table 4).

[5] = system: Tubazide-resistent H37Rv; format: in vivo, tuberculosis mycobacteria; mice of the CBA line; settings: for Damage index / Life duration / Weight of the lung: Tubazide-resistent H37Rv
[6] = system: Kyp-4 strain of leprosy mycobacteria; test: Antileprous activity in mice infected by Shepard's procedure; format: in vivo, leprosy mycobacteria; male mice of the CBA line
Excerpt: Antileprous activity of isophonum as compared with that of diuciphonum was studied on male mice of the CBA line infected with the laboratory Kyp-4 strain of leprosy mycobacteria taken in an amount of 5000 and introduced intraplantedly by Shepard's procedure. The experiment lasted six months from the 7th of February to the […] 1996. Observed were 5 groups of mice with 15 mice in each group. All the animals were kept under the same conditions of the vivarium on a standard diat.
The first group (controls): during six months of the experiment the mice received 0.5 ml of a starch suspension through a probe five times a week. After six months the animals were killed through a cervical dislocation of backbone, the organs were subjected to a bacterioscopic investigation, no pathologic deviations characteristic of any of the groups were found. The bacteriscopic investigation of the infected site was carried out by grinding the mouse foot in 2 ml of 0.1 percent solution of albumin, making a smear from 0.01 ml of the suspenstion and painting it by Ziel-Nielson's procedure and counting the number of leprosy micobacteria in 60 fields of vision to determine the number of micobacteria per mouse in each group.

[7] = system: leprosy mycobacteria; test: Example 3, patient I., lepromatose-typed leprosy, combination treatment; format: in vivo, human
Protocol: They had been ill for 8 years. BIN=66.8-10.8-5.5 where BIN means bacteriological index. […] HI=5,4 where HI means histological index. The patient was ordered the following treatment: 200 mg of isophonum internally twice a day, 200 mg of diuciphonum i.m. and 100 mg dimocifon internally twice a day.
After 8 months of treatment the agent of leprosy vanished in the scrape of nasal mucosa, BIN was 8.3-14.2-4.2, the immunologic parameters normalized. Atfer a year of treatment many of the infiltrates resolved and the other sharply diminished in size and became soft and elastic with their colour changed from rust-brown to cyanotic. BIN became 5.7-4.8-5.3.
There came lymphocytes in moderate numbers. […] The patient continues to undergo treatment.

[8] = system: chlamydious infection, PCND; test: Double blind clinical test, chlamydiosis and pulmonary chronic nonspecific diseases; format: in vivo, human
Protocol: The investigation was carried out randomizedly by a “double blind method” on 45 patients aged 25 to 49 years.
The group I consisting of 15 patients (10 persons with pulmonary chronic nonspecific diseases (PCND), 6 of them having chronic catarrhal obstructive bronchitis and 4 having chronic catarrhal nonobstructive bronchitis; 4 persons with chlamydious infection and one person with ureaplasmic infection) received the preparation claimed as monotherapy in a daily dose of 200 mg during 30 days. The group II consisting of 15 patients (8 persons with chlamydious infection, 7 persons with PCND, 5 of them having chronic catarrhal bronchitis, 2 having bronchiectatic disease) received the preparation of the present invention as monotherapy in a daily dose of 400 mg during 30 days. The group III consisting of 15 patients (13 persons with PCND, 7 of them having chronic catarrhal nonobstructive bronchitis and 6 having chronic catarrhal obstructive bronchitis; 2 persons with chlamydious infection) received a placebo.

[9] = Example 2, patient D., bronchiectatic disease; format: in vivo, human; settings: daily dose 400 mg
Protocol: The patient was admitted to a clinic with a diagnosis “bronchiectatic disease”. Concomitant diseases were chronic tonsillitis, diffuse enlargement of thyroid approximately of the first or the second degree.
According to the protocol of clinical tests the patient was ordered the intake of isophonum for the periode of 30 days in a daily dose of 400 mg. On the 14th or 15th day of intake of the preparation the morning sputum discharge considerably diminished in quantity and changed in character from pussy to mucous, the cough ceased and the patient's general state of health and mood improved.

[10] = Solubility; format: physicochemical
Protocol: It is soluble in dimethylformamide, dimethylsulfoxide, deluted acids and alkalies; f. p.=255-256° C. The structure of matter is confirmed by the data of PMR-spectroskopy.

[11] = after a year, combination with diuciphonum and dimocifon

SMILES: Cc1[nH]c(=O)[nH]c(=O)c1S(=O)(=O)NNC(=O)c1ccncc1.O [Isophonum, N-(6-methyl-2,4-dioxo-1,2,3,4-tetrahydro-5-pyrimidinsulfon)-N′-isonicotinoylhydrazide hydrate]
- toxicity [1]: exceed 7000 mg/kg
- AFC-number in the spleen ([2]; 500 μg per mouse per os in starch suspension, 5th day after immunization): 2800 ± 200
- Immune response stimulation index ([2]; 500 μg per mouse per os, ratio of AFC test group to control group): 5.6
- Intensity of involvement of 3H-thymidine in DNA of cultivated cells, PHA-activated ([3]; 0.01 μg/ml): 19995 impulse per minute
- Intensity of involvement of 3H-thymidine in DNA of cultivated cells, Spontaneous ([3]; 0.01 μg/ml): 901 impulse per minute
- Intensity of involvement of 3H-thymidine in DNA of cultivated cells, PHA-activated ([3]; 0.03 μg/ml): 24736 impulse per minute
- Intensity of involvement of 3H-thymidine in DNA of cultivated cells, Spontaneous ([3]; 0.03 μg/ml): 1152 impulse per minute
- Intensity of involvement of 3H-thymidine in DNA of cultivated cells, PHA-activated ([3]; 0.1 μg/ml): 37890 impulse per minute
- Intensity of involvement of 3H-thymidine in DNA of cultivated cells, Spontaneous ([3]; 0.1 μg/ml): 1818 impulse per minute
- Intensity of involvement of 3H-thymidine in DNA of cultivated cells, PHA-activated ([3]; 1 μg/ml): 25455 impulse per minute
- Intensity of involvement of 3H-thymidine in DNA of cultivated cells, Spontaneous ([3]; 1 μg/ml): 1272 impulse per minute
- Intensity of involvement of 3H-thymidine in DNA of cultivated cells, PHA-activated ([3]; 5 μg/ml): 20120 impulse per minute
- Intensity of involvement of 3H-thymidine in DNA of cultivated cells, Spontaneous ([3]; 5 μg/ml): 871 impulse per minute
- optimal concentration ([3]; proliferation of T-cells): 0.1 µg/mL
- mitogenetic activity ([3]; spontaneous proliferation): possesses the proper mitogenetic activitiy of its own
- Phagocytic index [4]: 6.55 ± 0.06
- stimulation of the phagocytic activity of macrophages [4]: 56%
- Phagocytic index, percent of controls ([4]; controls 100%): (156%)
- Damage index ([5]; 100 μg per mouse): 1.91 ± 0.18
- Life duration ([5]; 100 μg per mouse): 35.2 ± 3.4
- Weight of the lung ([5]; 100 μg per mouse): 493.4 ± 65.1
- Damage index ([5]; 200 μg per mouse): 1.72 ± 0.24
- Life duration ([5]; 200 μg per mouse): 37.1 ± 6.2
- Weight of the lung ([5]; 200 μg per mouse): 478.2 ± 60.8
- antituberculous action ([5]; mycobacteria resistent to tubazide and streptomycin): pronounced antituberculous action
- activity against the leprosy mycobacteria ([6]; 2.5 mg/kg): bactericide activity
- Percentage of infected animals ([6]; after six months, isophonum dose 2.5 mg/kg): 0%
- HI (histological index) [7, 11]: 4.8
- amount of B-lymphocytes [7, 11]: 12%
- amount of T-helpers [7, 11]: 66%
- amount of T-lymphocytes [7, 11]: 85%
- immunoregilatory index [7, 11]: 3.4
- total number of lymphocytes [7, 11]: 51%
- HI (histological index) ([7]; patient I., on hospitalization): 5,4
- side effects ([8]; dose of 200 mg and dose of 400 mg): does not have any side effects
- number of patients with improvement of clinico-immunologic indices ([8]; group I, 15 patients, 200 mg per day, 30 days): 14 people
- number of patients with improvement of clinico-immunologic parameters ([8]; group II, 15 patients, 400 mg daily, 30 days): 14 persons
- signs of individual intolerance ([8]; one patient of group I, 200 mg per day, 3rd day of intake): nausea and vomiting
- day of considerable improvement of clinical status and general blood analysis [9]: 20 days
- day of considerable improvement of immune status parameters [9]: 31 days
- solubility in dimethylformamide, dimethylsulfoxide, deluted acids and alkalies [10]: soluble
- solubility in water or usual organic solvents [10]: difficult to dissolve

Reference: patent publication US6465476B1, “Immuno-modulator exhibiting antimicrobial and anti-mycrobacterial activities, method for producing the same and pharmaceutical preparation” (priority 1997, dated 2002)
